Source: patent publication US8969554B2, “6-acyl-1,2,4-triazine-3,5-dione derivative and herbicides” (Kumiai Chemical Industry Co., Ltd., priority 2010, dated 2015)

Experiments:
Type in all cases: in vivo
foxtail = assay: Herbicidal activity by field soil treatment (Test example 2); details: 1000 g effective component per hectare, day 21 after the treatment;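 note: index 0 to 10 in 10% steps of herbicidal effect with 10 meaning complete death and 0 below 10%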
Method: [table] Test for Determining Herbicidal Activity by Field Soil Treatment A 80 cm^2 wide plastic pot was filled with a field soil and seeds of each of Echinochloa crus-galli, foxtail, Indian millet, and A. retroflexus were sowed and then covered with soil. The wettable powder produced with reference to the Formulation example 1 was diluted water, and applied on the soil surface by using a small sprayer in an amount of 1000 liters per hectare so that the effective component is 1000 g per hectare. After that, the plants were cultivated in a greenhouse, and on day 21 after the treatment, evaluation was made by the criteria described in Table 72 for determining the herbicidal effects.

A. retroflexus [1] = assay: Herbicidal activity by field foliage treatment (Test example 3); parameters: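 index 0 to 10 in 10% steps of herbicidal effect with 10 meaning complete death and 0 below 10%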; details: 1000 g effective component per hectare, day 14 after the treatment
How it was run: (§1)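 Field soil in pots; Indian millet and A. retroflexus grown 2 weeks in greenhouse, then sprayed over whole plant with water-diluted wettable powder at 1000 L/ha, giving 1000 g active component/ha. Herbicidal effect scored by set criteria on day 14 after treatment.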

Indian millet [2] = assay: as above; parameters: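 index 0 to 10 in 10% steps of herbicidal effect with 10 meaning complete death and 0 below 10%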; details: 1000 g effective component per hectare, day 14 after the treatment
How it was run: as §1

Echinochloa crus-galli [3] = assay: Herbicidal activity by field soil treatment (Test example 2); parameters: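 index 0 to 10 in 10% steps of herbicidal effect with 10 meaning complete death and 0 below 10%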; details: 1000 g effective component per hectare, day 21 after the treatment
How it was run: (§2)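 Seeds of the four weeds sown in field soil in pots; wettable powder diluted in water sprayed pre-emergence on soil surface at 1000 L/ha, giving 1000 g active per hectare. Greenhouse grown; herbicidal effect scored on day 21 after treatment by set criteria.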

Indian millet [4] = assay: as above; parameters: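 index 0 to 10 in 10% steps of herbicidal effect with 10 meaning complete death and 0 below 10%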; details: 1000 g effective component per hectare, day 21 after the treatment
How it was run: as §2

Echinochloa crus-galli [5] = assay: Herbicidal activity by field foliage treatment (Test example 3); parameters: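 index 0 to 10 in 10% steps of herbicidal effect with 10 meaning complete death and 0 below 10%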; details: 1000 g effective component per hectare, day 14 after the treatment
How it was run: (§3)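 Potted field-soil plants grown 2 weeks in a greenhouse were sprayed over the whole foliage with diluted wettable powder at 1000 L/ha, delivering 1000 g active ingredient per hectare. Herbicidal effect scored by visual criteria 14 days after treatment.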

Scirpus juncoides Rocxb. = assay: Herbicidal activity by paddy field soil treatment (Test Example 1); parameters: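 index 0 to 10 in 10% steps of herbicidal effect with 10 meaning complete death and 0 below 10%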; details: applied on water surface, 1000 g of effective component per hectare, day 21 after the treatment
How it was run: (§4)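 Paddy soil in pots sown with seeds, flooded to 3 cm; next day wettable powder diluted in water applied to water surface at 1000 g active ingredient/ha. Greenhouse-grown; herbicidal effect scored on day 21 after treatment against rating criteria.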

Echinochloa oryzicola = assay: as above; parameters: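 index 0 to 10 in 10% steps of herbicidal effect with 10 meaning complete death and 0 below 10%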; details: 1000 g of effective component per hectare, evaluated on day 21 after the treatment, criteria of Table 72
How it was run: as §4

Monochoria vaginalis = assay: as above; parameters: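 index 0 to 10 in 10% steps of herbicidal effect with 10 meaning complete death and 0 below 10%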; details: 1000 g of effective component per hectare, evaluated on day 21 after the treatment, criteria of Table 72
How it was run: as §4

Setaria viridis = assay: Herbicidal activity by field foliage treatment (Test example 3); details: 1000 g effective component per hectare, day 14 after the treatment;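 note: index 0 to 10 in 10% steps of herbicidal effect with 10 meaning complete death and 0 below 10%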
How it was run: as §3

A. retroflexus [6] = assay: Herbicidal activity by field soil treatment (Test example 2); parameters: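 index 0 to 10 in 10% steps of herbicidal effect with 10 meaning complete death and 0 below 10%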; details: 1000 g effective component per hectare, day 21 after the treatment
How it was run: as §2

| Compound | herbicidal effect index, Setaria viridis (foxtail) | herbicidal effect index, Amaranthus retroflexus (A. retroflexus [1]) | herbicidal effect index, Abutilon theophrasti (Indian millet [2]) | herbicidal effect index, Echinochloa crus-galli (Echinochloa crus-galli [3]) | herbicidal effect index, Abutilon theophrasti (Indian millet [4]) | herbicidal effect index, Echinochloa crus-galli (Echinochloa crus-galli [5]) | herbicidal effect index, S. juncoides Rocxb. (Scirpus juncoides Rocxb.) | Herbicidal effects index number, Echinochloa oryzicola (Echinochloa oryzicola) | Herbicidal effects index number, Monochoria vaginalis (Monochoria vaginalis) | herbicidal effect index, Setaria viridis (Setaria viridis) | herbicidal effect index, Amaranthus retroflexus (A. retroflexus [6]) |
| --- | --- | --- | --- | --- | --- | --- | --- | --- | --- | --- | --- |
| COc1cccc(OC)c1-n1c(=O)c(C(=O)C2=C(O)CCCC2=O)nn(C)c1=O [Compound I-98] | 7 | 8 | 9 | 7 | 7 | 7 | – | – | – | – | – |
| Cn1nc(C(=O)C2=C(O)CCCC2=O)c(=O)n(C2CCCCC2)c1=O [I-19] | 8 | 10 | 10 | 8 | – | 10 | 10 | 10 | 10 | 10 | 8 |
| Cc1ccc(-n2c(=O)c(C(=O)C3=C(O)CCCC3=O)nn(C)c2=O)cc1C [I-87] | 6 | 10 | 9 | 9 | 9 | 9 | 10 | 9 | 10 | – | 9 |
| COc1ccc(-n2c(=O)c(C(=O)C3=C(O)CCCC3=O)nn(C)c2=O)cc1F [I-99] | 6 | 10 | 10 | 8 | 9 | 9 | 10 | 10 | 10 | – | 10 |
| COc1cc(-n2c(=O)c(C(=O)C3=C(O)CCCC3=O)nn(C)c2=O)ccc1F [I-111] | 7 | 10 | 10 | 9 | 9 | 10 | 10 | 10 | 10 | – | 10 |
| COc1cc(-n2c(=O)c(C(=O)C3=C(O)CCCC3=O)nn(C)c2=O)ccc1Cl [I-131] | 7 | 10 | 10 | 9 | 9 | 10 | 10 | 9 | 10 | – | 10 |
| Cc1c(Cl)cccc1-n1c(=O)c(C(=O)C2=C(O)CCCC2=O)nn(C)c1=O [I-136] | 8 | 10 | 9 | – | 9 | 9 | 10 | 9 | 10 | 9 | 9 |
| COc1cc(-n2c(=O)c(C(=O)C3=C(O)CCCC3=O)nn(C)c2=O)ccc1C [I-155] | 7 | 10 | 10 | – | 10 | 9 | 10 | 10 | 10 | 7 | 10 |
| CC(C)n1nc(C(=O)C2=C(O)CCCC2=O)c(=O)n(-c2ccccc2)c1=O [I-260] | 5 | 10 | 10 | 10 | 10 | 8 | 10 | 10 | 10 | – | 10 |
| Cn1nc(C(=O)C2=C(O)CCCC2=O)c(=O)n(-c2ccc(Cl)nc2)c1=O [I-280] | 8 | 10 | 9 | 9 | 9 | 9 | 10 | 10 | 10 | – | 10 |
| Cc1cc(I)ccc1-n1c(=O)c(C(=O)C2=C(O)CCCC2=O)nn(C)c1=O [I-283] | 8 | 8 | 8 | 9 | 9 | 8 | 10 | 10 | 10 | – | 10 |
| Cn1nc(C(=O)C2=C(O)CCCC2=O)c(=O)n(CC(=O)OC(C)(C)C)c1=O [I-294] | 7 | 8 | 7 | 9 | 9 | 9 | 9 | 9 | 9 | – | 10 |
| COc1c(Cl)cc(-n2c(=O)c(C(=O)C3=C(O)CCCC3=O)nn(C)c2=O)cc1Cl [I-299] | 10 | 10 | 9 | 9 | 10 | 8 | 10 | 10 | 10 | – | 10 |
| Cc1ccc(-n2c(=O)c(C(=O)C3=C(O)C(C)(C)C(=O)C(C)(C)C3=O)nn(C)c2=O)c(C)c1 [VI-65] | 7 | 10 | 10 | – | 10 | 9 | 10 | 10 | 10 | 7 | 10 |
